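Following 48 hours of exposure in 96-well plates, responses at five concentrations were used to interpolate endpoints linearly. The concentration for full growth arrest is given as TGI.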
Legend:
Test in all cases: NCI tumour cell line growth inhibition, 48 h
SF-539 CNS = test system: SF-539 CNS
PC-3 prostate = test system: PC-3 prostate
MALME-3M melanoma = test system: MALME-3M melanoma
HOP-62 NSCLC = test system: HOP-62 NSCLC
SK-MEL-28 melanoma = test system: SK-MEL-28 melanoma
EKVX NSCLC = test system: EKVX NSCLC
DU-145 prostate = test system: DU-145 prostate
OVCAR-8 ovarian = test system: OVCAR-8 ovarian
786-0 renal = test system: 786-0 renal
MCF7 breast = test system: MCF7 breast
SW-620 colon = test system: SW-620 colon
T-47D breast = test system: T-47D breast
CCRF-CEM leukemia = test system: CCRF-CEM leukemia
HT29 colon = test system: HT29 colon
MOLT-4 leukemia = test system: MOLT-4 leukemia
UO-31 renal = test system: UO-31 renal
KM12 colon = test system: KM12 colon
SK-MEL-5 melanoma = test system: SK-MEL-5 melanoma
OVCAR-3 ovarian = test system: OVCAR-3 ovarian
UACC-257 melanoma = test system: UACC-257 melanoma
A498 renal = test system: A498 renal
OVCAR-5 ovarian = test system: OVCAR-5 ovarian
IGROV1 ovarian = test system: IGROV1 ovarian
NCI-H226 lung = test system: NCI-H226 lung
OVCAR-4 ovarian = test system: OVCAR-4 ovarian
HS 578T breast = test system: HS 578T breast
RPMI-8226 leukemia = test system: RPMI-8226 leukemia
COLO 205 colon = test system: COLO 205 colon
NCI-H23 lung = test system: NCI-H23 lung
NCI/ADR-RES ovarian = test system: NCI/ADR-RES ovarian
UACC-62 melanoma = test system: UACC-62 melanoma
SK-OV-3 ovarian = test system: SK-OV-3 ovarian
SN12C renal = test system: SN12C renal
NCI-H460 lung = test system: NCI-H460 lung
MDA-MB-435 = test system: MDA-MB-435
TK-10 renal = test system: TK-10 renal
LOX IMVI melanoma = test system: LOX IMVI melanoma
SNB-19 CNS = test system: SNB-19 CNS
HCT-116 colon = test system: HCT-116 colon
MDA-N = test system: MDA-N
SF-295 CNS = test system: SF-295 CNS
ACHN renal = test system: ACHN renal
HL-60(TB) leukemia = test system: HL-60(TB) leukemia
SF-268 CNS = test system: SF-268 CNS
MDA-MB-231 breast = test system: MDA-MB-231 breast
HOP-92 NSCLC = test system: HOP-92 NSCLC
M14 melanoma = test system: M14 melanoma
NCI-H522 lung = test system: NCI-H522 lung
SR leukemia = test system: SR leukemia
A549 NSCLC = test system: A549 NSCLC
RXF 393 renal = test system: RXF 393 renal
CAKI-1 renal = test system: CAKI-1 renal
SNB-75 CNS = test system: SNB-75 CNS
K-562 leukemia = test system: K-562 leukemia
HCC-2998 colon = test system: HCC-2998 colon
U251 CNS = test system: U251 CNS
HCT-15 colon = test system: HCT-15 colon
SK-MEL-2 melanoma = test system: SK-MEL-2 melanoma

Measured: TGI

CC(CO)CCNc1ncnc2c1ncn2CCC(=O)O (centres undefined)
not listed: HCC-2998 colon | U251 CNS | HCT-15 colon | SK-MEL-2 melanoma
> 100 µM: all other assays above

Cc1oc2c(cc(O)c3ccccc32)c2cccc1-2
76.7 µM: M14 melanoma
34.8 µM: MDA-MB-231 breast
not listed: UO-31 renal | IGROV1 ovarian | NCI-H226 lung | OVCAR-4 ovarian | UACC-62 melanoma | NCI-H522 lung | RXF 393 renal | K-562 leukemia | SK-MEL-2 melanoma
> 100 µM: all other assays above

COc1ccc(N(CN2C(=O)CCC2OC)C(C)=O)cc1 (centres undefined)
not listed: HL-60(TB) leukemia | HCC-2998 colon
> 100 µM: all other assays above
